In ChEMBL document CHEMBL6078685, “Potential COX-2 inhibitors modulating NF-κB/MAPK signaling pathways: Design, synthesis and evaluation of anti-inflammatory activity of Pterostilbene-carboxylic acid derivatives with an oxime ether moiety” (Bioorg Med Chem, 2025):

What was measured:
RAW264.7 [1] = experiment: Cytotoxicity against mouse RAW264.7 cells assessed as reduction in cell viability at 20 uM incubated for 48 hrs by MTT method; type: toxicity, cell-based; conditions: raw264.7, 48 h
RAW264.7 [2] = experiment: Inhibition of LPS-induced NO release in mouse RAW264.7 cells at 20 uM preincubated with compound for 48 hrs followed by LPS addition and measured after 24 hrs by nitric oxide assay relative to control; type: functional; conditions: time 72 hrs
RAW264.7 [3] = experiment: Inhibition of LPS-induced NO release in mouse RAW264.7 cells preincubated with compound for 48 hrs followed by LPS addition and measured after 24 hrs by nitric oxide assay; type: functional, cell-based
RAW264.7 [4] = experiment: Downregulation of COX-2 expression in LPS-induced mouse RAW264.7 cells preincubated for 3 hrs followed by LPS addition for 30 mins by Western blotting analysis; type: functional, cell-based; conditions: time 3.5 hrs
RAW264.7 [5] = experiment: Downregulation of iNOS expression in LPS-induced mouse RAW264.7 cells preincubated for 3 hrs followed by LPS addition for 30 mins by Western blotting analysis; type: functional, cell-based; conditions: time 3.5 hrs
RAW264.7 [6] = experiment: Antiinflammatory activity against mouse RAW264.7 cells assessed as decrease in LPS-induced IIL-1beta release preincubated for 3 hrs followed by LPS addition for 30 mins by Western blotting analysis; type: functional, cell-based; conditions: dose 4-16 µM, time 3.5 hrs
RAW264.7 [7] = experiment: Antiinflammatory activity against mouse RAW264.7 cells assessed as decrease in LPS-induced IIL-6 release preincubated for 3 hrs followed by LPS addition for 30 mins by Western blotting analysis; type: functional, cell-based; conditions: dose 4-16 µM, time 3.5 hrs
RAW264.7 [8] = experiment: Antiinflammatory activity against mouse RAW264.7 cells assessed as decrease in LPS-induced TNF-alpha release preincubated for 3 hrs followed by LPS addition for 30 mins by Western blotting analysis; type: functional, cell-based; conditions: dose 4-16 µM
RAW264.7 [9] = experiment: cells; conditions: Mus musculus
Description: Antiinflammatory activity against mouse RAW264.7 cells assessed as inhibition of LPS-induced IIL-1beta secretion pretreated with LPS for 3 hrs followed by compound addition and measured after 24 hrs by ELISA

RAW264.7 [10] = experiment: cells; conditions: Mus musculus; remark: listed apart in the source
Description: Antiinflammatory activity against mouse RAW264.7 cells assessed as inhibition of LPS-induced IIL-6 secretion pretreated with LPS for 3 hrs followed by compound addition and measured after 24 hrs by ELISA

RAW264.7 [11] = experiment: cells; conditions: Mus musculus; remark: listed apart in the source
Description: Antiinflammatory activity against mouse RAW264.7 cells assessed as inhibition of LPS-induced TNF-alpha secretion pretreated with LPS for 3 hrs followed by compound addition and measured after 24 hrs by ELISA

SMILES	Activity (RAW264.7 [1])	inhibition at 20 µM (RAW264.7 [2]) [%]	further results
COc1cc(/C=C/c2ccc(OCC(=O)O)cc2)c(/C=N/OCc2ccc(Br)cc2)c(OC)c1	Non-toxic	13.7	–
COc1cc(/C=C/c2ccc(OCC(=O)O)cc2)c(/C=N/OCc2ccc(Br)c(F)c2)c(OC)c1	Non-toxic	25.8	–
CCOC(=O)COc1ccc(/C=C/c2cc(OC)cc(OC)c2/C=N/OCc2ccc(Cl)c(F)c2)cc1	Non-toxic	28.1	–
CCNC(=O)COc1ccc(/C=C/c2cc(OC)cc(OC)c2/C=N/OCc2ccc(Br)c(F)c2)cc1	Non-toxic	42.1	–
CCOC(=O)COc1ccc(/C=C/c2cc(OC)cc(OC)c2/C=N/OCc2ccc(C(F)(F)F)cc2)cc1	Non-toxic	18.6	–
COc1cc(/C=C/c2ccc(OCC(=O)O)cc2)c(/C=N/OCc2ccc(Cl)c(F)c2)c(OC)c1	Non-toxic	23.8	–
CCCCO/N=C/c1c(/C=C/c2ccc(OCC(=O)OCC)cc2)cc(OC)cc1OC	Non-toxic	17.2	–
C#CCO/N=C/c1c(/C=C/c2ccc(OCC(=O)OCC)cc2)cc(OC)cc1OC	Non-toxic	21.8	–
CCCC(=O)OCCCNC(=O)COc1ccc(/C=C/c2cc(OC)cc(OC)c2/C=N/OCc2ccc(F)cc2)cc1	Non-toxic	47.1	–
CCNC(=O)COc1ccc(/C=C/c2cc(OC)cc(OC)c2/C=N/OCc2ccc(F)cc2)cc1	Non-toxic	68.5	IC50 (RAW264.7 [3]): 14.6 µM
CCOC(=O)COc1ccc(/C=C/c2cc(OC)cc(OC)c2/C=N/OCc2ccc(Br)cc2)cc1	Non-toxic	19.5	–
CCOC(=O)COc1ccc(/C=C/c2cc(OC)cc(OC)c2/C=N/OCc2ccc(F)cc2)cc1	Non-toxic	28.6	–
COc1cc(/C=C/c2ccc(OCC(=O)O)cc2)c(/C=N/OCc2ccc(C)cc2)c(OC)c1	Non-toxic	18.9	–
CCCCCC(=O)OCCCNC(=O)COc1ccc(/C=C/c2cc(OC)cc(OC)c2/C=N/OCc2ccc(F)cc2)cc1	Non-toxic	33.1	–
COc1cc(/C=C/c2ccc(OCC(=O)O)cc2)c(/C=N/OCc2ccc(Cl)cc2)c(OC)c1	Non-toxic	24.8	–
CCNC(=O)COc1ccc(/C=C/c2cc(OC)cc(OC)c2/C=N/OCc2ccccc2)cc1	Non-toxic	71.3	IC50 (RAW264.7 [3]): 12.3 µM
COc1cc(/C=C/c2ccc(OCC(=O)NCCCO)cc2)c(/C=N/OCc2ccc(F)cc2)c(OC)c1	Non-toxic	86.7	IC50 (RAW264.7 [3]): 9.87 µM; Activity (RAW264.7 [4]): Dose-dependent-effect; Activity (RAW264.7 [5]): Dose-dependent-effect; Activity (RAW264.7 [6]): Dose-dependent-effect; Activity (RAW264.7 [7]): Dose-dependent-effect; Activity (RAW264.7 [8]): Dose-dependent-effect; IC50 (RAW264.7 [9]): 7.36 µM; IC50 (RAW264.7 [10]): 6.76 µM; IC50 (RAW264.7 [11]): 9.14 µM

SMILES	Activity (RAW264.7 [1])	inhibition at 20 µM (RAW264.7 [2]) [%]	further results
CCCCO/N=C/c1c(/C=C/c2ccc(OCC(=O)O)cc2)cc(OC)cc1OC	Non-toxic	20.2	–
COc1cc(/C=C/c2ccc(OCC(=O)O)cc2)c(/C=N/OCc2ccc(F)cc2)c(OC)c1	Non-toxic	26.1	–
CCOC(=O)COc1ccc(/C=C/c2cc(OC)cc(OC)c2/C=N/OCc2ccc(Br)c(F)c2)cc1	Non-toxic	29.3	–
COc1cc(/C=C/c2ccc(OCC(=O)O)cc2)c(/C=N/OCc2ccccc2)c(OC)c1	Non-toxic	25.2	–
CCNC(=O)COc1ccc(/C=C/c2cc(OC)cc(OC)c2/C=N/OCc2ccc(Cl)cc2)cc1	Non-toxic	49.2	–
CCOC(=O)COc1ccc(/C=C/c2cc(OC)cc(OC)c2/C=N/OCc2ccc(C)cc2)cc1	Non-toxic	20	–
COc1cc(/C=C/c2ccc(OCC(=O)NCCCO)cc2)c(/C=N/OCc2ccc(Br)c(F)c2)c(OC)c1	Non-toxic	48	–
COc1cc(/C=C/c2ccc(OCC(=O)NCCCO)cc2)c(/C=N/OCc2ccc(Cl)c(F)c2)c(OC)c1	Non-toxic	61	IC50 (RAW264.7 [3]): 17.4 µM
COc1cc(/C=C/c2ccc(OCC(=O)O)cc2)c(/C=N/OCc2ccc(C(F)(F)F)cc2)c(OC)c1	Non-toxic	21.8	–
COc1cc(/C=C/c2ccc(OCC(=O)NCCCO)cc2)c(/C=N/OCc2ccccc2)c(OC)c1	Non-toxic	34.7	–
C#CCO/N=C/c1c(/C=C/c2ccc(OCC(=O)O)cc2)cc(OC)cc1OC	Non-toxic	22.2	–
CCOC(=O)COc1ccc(/C=C/c2cc(OC)cc(OC)c2/C=N/OCc2ccc(Cl)cc2)cc1	Non-toxic	29	–
COc1cc(/C=C/c2ccc(OCC(=O)NCCCO)cc2)c(/C=N/OCc2ccc(Cl)cc2)c(OC)c1	Non-toxic	64.6	IC50 (RAW264.7 [3]): 18.1 µM
CCCCCCCC(=O)OCCCNC(=O)COc1ccc(/C=C/c2cc(OC)cc(OC)c2/C=N/OCc2ccc(F)cc2)cc1	Non-toxic	20.8	–
Cc1ccc(-c2cc(C(F)(F)F)nn2-c2ccc(S(N)(=O)=O)cc2)cc1 [CELECOXIB]	–	29.4	–
CCOC(=O)COc1ccc(/C=C/c2cc(OC)cc(OC)c2/C=N/OCc2ccccc2)cc1	Non-toxic	37.8	–
CCNC(=O)COc1ccc(/C=C/c2cc(OC)cc(OC)c2/C=N/OCc2ccc(Cl)c(F)c2)cc1	Non-toxic	40.6	–
